Results: patent publication US10709687B2, “FLT3 receptor inhibitor at low dosage for the treatment of neuropathic pain” (INSTITUT NATIONAL DE LA SANTE ET DE LA RECHERCHE MEDICALE …, priority 2016, dated 2020)
Like-named read-outs stand apart in the source and are kept apart here.

Key:
[1] = cited from earlier work
[2] = test system: nerve injury-induced mechanical pain hypersensitivity; experiment: Spinal Nerve Ligation (SNL) model, paw pressure test; format: in vivo, rat; details: for maximal inhibition on the SNL model in rat (dose): Method 1, no experimental details given; for Human Equivalent Dose (HED) from SNL rat dose: allometric FDA factor for the rat 6.2, human body weight 60 kg
Protocol: Adult Sprague Dawley rats (300-340 gr) (Janvier LABS, Le Genest Saint-Isle, France) were used according to the guidelines of the International Association for the Study of Pain. Rats were housed in cages with a 12/12 hr light/dark cycle and fed food and water ad libitum. Behavioral responsiveness of the rats was tested following ten days of habituation to the testing environment and the observer. Left side L5 spinal nerve was injured as described by Kim and Chung (1992) Pain 50, 355-363. Anesthesia was induced and maintained with isoflurane. A midline incision was made at the L3-S2 level and the dorsal vertebral column from L4 to S2 was exposed. Part of the L6 transverse process was carefully removed with fine rongeurs. The L5 spinal nerve were isolated and tightly ligated distal to the DRG with a 4-0 silk suture. The wound was closed in two layers using absorbable sutures. A similar procedure was performed for the sham surgery, except that spinal nerve was not isolated and not ligated. After surgery, the posture of the sham-operated and SNL rats was closely monitored before they were used in different experiments.
Mechanical hyperalgesia was measured as the threshold to a noxious mechanical stimulus. Nociceptive thresholds (NT) were determined in handled rats by a modification of the Randall-Selitto method (Kayser et al., Brain Res 1990; 508:329-332). Briefly, a constantly increasing pressure is applied to the rat hind paw until vocalization occurs. A Basile analgesimeter (Apelex, Massy, France; stylus tip diameter, 1 mm) was used. A 600-g cut-off value was determined to prevent tissue damage.
It was administered by oral gavage at different doses in a volume of 1 ml/kg body weight in a solution of dimethylsulfoxide (DMSO) at 3%. Control animals received an equal volume of DMSO 3%.
The data are presented as means±SEM. One-way ANOVA was used to assess individual group comparisons. […] The Newman-Keuls test was used for multiple comparisons between groups.

[3] = test system: human tumor cells expressing FLT3-ITD (MV4,11); details: mouse xenograft model; literature references in Table 1; cited from earlier work
[4] = Active (recommended or clinically efficacious) dose for treating cancer in patients; format: in vivo; details: converted for a human with a body weight of 60 kg; advanced or recurrent head and neck cancers
From the text: Active doses for FLT3 receptor inhibitor, according to Method 1 as described above, are the recommended doses, as appearing in the drug label when the product is marketed. […] Such information may be found via various sources well known by the person skilled in the art, such as articles, FDA data publications, labeling of marketed products, Summary of Product Characteristics (SmPC) from the European Medicine Agency (EMA), clinical trial descriptions from the US National Institute of Health (available at www.clinicaltrials.gov) and information on the outer product packaging.

[5] = test system: inflammatory pain (CFA-induced mechanical hypersensitivity); experiment: Complete Freund's Adjuvant (CFA) inflammatory pain model, von Frey mechanical hypersensitivity; format: in vivo; details: CFA mice; sunitinib 5 or 20 mg/kg; measured 1 and 2 days after administration
Protocol: Adult mice (8-10 week-old) (Janvier LABS, Le Genest Saint-Isle, France) were used according to the guidelines of the International Association for the Study of Pain. Mice were housed in cages with a 12/12 hr light/dark cycle and fed food and water ad libitum. Behavioral responsiveness of the animals was tested following ten days of habituation to the testing environment and the observer. Before testing, mice were acclimatized for 60 min in the temperature and light-controlled testing room within a plastic cylinder or on wire mesh.
A 0.6 g-von Frey filament was used for measuring punctuate hindpaw mechanical hypersensitivity with the dynamic plantar aesthesiometer (Bioseb, France). Sharp withdrawal of the stimulated hindpaw was considered as a positive response. The procedure was applied 10 times and the percentage of positive responses was calculated. Basal positive responses were recorded twice during two, consecutive days.
Inflammatory pain was produced by local injection of Complete Freund's Adjuvant (CFA), which induces a prolonged swelling that becomes maximal at 24 hrs and persists for at least 7 days (Iadarola et al., Pain. 1988; 35:313-26). […] Mechanical hypersensitivity was measured 4 days later. […]

FLT3 = target: T1, FLT3 (Mus musculus, UniProt Q00342); experiment: FL potentiation of capsaicin-induced [Ca2+]i response in DRG neurons primary culture; format: cell-based, mice; details: FL 0.56 nM, capsaicin 0.5 μM
T1 construct: Primary neuronal cultures were established from lumbar (L4 to L6) dorsal root ganglia (DRG) of adult mice; endogenous in cells; host or cells: primary DRG neurons from adult mice
T1 sequence (Q00342 28-1000): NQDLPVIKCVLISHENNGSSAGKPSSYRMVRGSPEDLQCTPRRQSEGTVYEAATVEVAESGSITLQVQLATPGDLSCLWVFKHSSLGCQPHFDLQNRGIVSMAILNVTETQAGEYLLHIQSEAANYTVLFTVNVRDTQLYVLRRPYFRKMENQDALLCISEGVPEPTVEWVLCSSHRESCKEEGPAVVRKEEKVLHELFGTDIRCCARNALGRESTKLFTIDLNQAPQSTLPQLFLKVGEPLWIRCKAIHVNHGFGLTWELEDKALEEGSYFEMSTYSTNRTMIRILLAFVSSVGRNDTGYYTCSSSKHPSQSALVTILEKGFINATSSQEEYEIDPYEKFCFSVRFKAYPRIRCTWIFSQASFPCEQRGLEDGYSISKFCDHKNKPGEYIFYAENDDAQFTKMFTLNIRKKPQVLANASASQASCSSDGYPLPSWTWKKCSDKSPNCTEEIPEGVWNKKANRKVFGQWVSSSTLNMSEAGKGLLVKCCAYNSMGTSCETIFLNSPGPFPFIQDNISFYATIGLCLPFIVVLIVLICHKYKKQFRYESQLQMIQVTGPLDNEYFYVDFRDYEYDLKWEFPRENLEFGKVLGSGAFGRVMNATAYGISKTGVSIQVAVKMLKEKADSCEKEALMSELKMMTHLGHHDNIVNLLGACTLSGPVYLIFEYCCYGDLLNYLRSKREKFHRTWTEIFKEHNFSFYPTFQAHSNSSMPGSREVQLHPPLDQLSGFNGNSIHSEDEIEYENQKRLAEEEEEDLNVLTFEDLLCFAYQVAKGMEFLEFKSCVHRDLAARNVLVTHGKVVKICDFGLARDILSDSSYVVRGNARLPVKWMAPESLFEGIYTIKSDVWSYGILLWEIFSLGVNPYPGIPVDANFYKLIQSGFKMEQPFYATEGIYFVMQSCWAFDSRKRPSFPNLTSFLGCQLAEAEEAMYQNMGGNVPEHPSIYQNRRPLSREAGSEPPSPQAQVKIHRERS
Protocol: Primary neuronal cultures were established from lumbar (L4 to L6) dorsal root ganglia (DRG) of adult mice as previously described (Boudes et al, J. Neurosci. 29, 46, 10060-10068). Ganglia were treated twice with collagenase A (1 mg/ml, Roche Diagnostic, France) for 45 minutes (37° C.) and then with trypsin-EDTA (0.25%, Sigma, St Quentin Fallavier, France) for 30 minutes. They were mechanically dissociated by passing 8 to 10 times through the tip of a fire-polished Pasteur pipette in neurobasal (Life Technologies, Cergy Pontoise, France) culture medium supplemented with 10% foetal bovine serum and DNase (50 U/ml, Sigma, St Quentin Fallavier, France). Isolated cells were collected by centrifugation and suspended in neurobasal culture medium supplemented with 2% B27 (Life Technologies), 2 mM glutamine, penicillin/streptomycin (20 U/ml, 0.2 mg/ml). […]
For intracellular Ca^2+ measurements, DRG neurons were used 18-30 h after plating as described previously. […] A Fura filter cube with 400 long pass dichroic and D510/40m emission band pass was used to collect fluorescence emissions separately for each wavelength. Images were acquired and analyzed with Metafluor software (Molecular Devices). Changes in intracellular calcium concentrations ([Ca^2+]i) were monitored as changes of the ratio of the fura-2-fluorescence intensity recorded at 340 nm and 380 nm excitation wavelengths (ΔF340/380). […]

[6] = test system: human tumor cells expressing FLT3-ITD (MV4,11); experiment: Tumor regression in mouse xenograft model sensitive to FLT3 inhibition; format: in vivo; details: allometric FDA factor for the mouse 12.3; 60 kg
From the text: The dose of FLT3 receptor inhibitor that induces tumor regression in animal models can be measured by using a mouse xenograft model, which is sensitive to FLT3 inhibition. Such a model may consist in an athymic immuno-deficient mouse implanted with human tumor cells that express a mutated, spontaneously activated, form of FLT3. […] An example of tumor cells that express FLT3-ITD is the MV4,11 cell line (Lange et al., Blood, 1987, 70:192-199).

In the case of `COc1cc(Nc2ncc(F)c(Nc3ccc4c(n3)N(COP(=O)(O)O)C(=O)C(C)(C)O4)n2)cc(OC)c1OC` [Fostamatinib], the “Active dose for treating cancer (by cancer type)” value (from here on “Active dose for treating cancer”) ([1]; twice a day) is given as 100-200 twice a day.

With `CCc1nc(C(N)=O)c(Nc2ccc(N3CCC(N4CCN(C)CC4)CC3)c(OC)c2)nc1NC1CCOCC1` [Gilteritinib] the “maximal inhibition on the SNL model in rat (dose)” value [2] was 2 mg/kg, the “Human Equivalent Dose (HED) from SNL rat dose” value [2] was “HED = 19.4 mg” and the “Human Equivalent Dose (HED) from SNL rat dose” value ([2]; listed as gilteritinib) was 19.4 mg.

In the case of `Nc1ncc(-c2cnn(CCO)c2)c2scc(-c3ccc(NC(=O)Nc4cccc(F)c4)cc3)c12` [Ilorasertib], the “minimum inhibiting dose inducing maximal tumor regression” value [3] is given as 20 mg/kg and the “Active dose for treating cancer” value ([1]; once weekly, acute myelogenous leukaemia, myelodysplastic syndrome or chronic myelomonocytic leukaemia) is given as 540 mg once weekly.

For `CO[C@@H]1[C@H](N(C)C(=O)c2ccccc2)C[C@H]2O[C@]1(C)n1c3ccccc3c3c4c(c5c6ccccc6n2c5c31)C(=O)NC4` [Midostaurin], the “Human Equivalent Dose (HED) from SNL rat dose” value [2] was 39 mg and the “Human Equivalent Dose (HED) from SNL rat dose” value ([2]; listed as Midostaurine) was “HED = 39 mg”.

In the case of `C1=C/COCc2cc(ccc2OCCN2CCCC2)Nc2nccc(n2)-c2cccc(c2)COC/1` [Pacritinib], the “Active dose for treating cancer” value ([1]; once daily) is given as 400 and the “Active dose for treating cancer” value ([1]; twice daily) is given as 200.

In the case of `CC(C)(C)c1cc(NC(=O)Nc2ccc(-c3cn4c(n3)sc3cc(OCCN5CCOCC5)ccc34)cc2)no1` [Quizartinib], the “maximal inhibition on the SNL model in rat (dose)” value [2] is reported as 0.77 mg/kg, the “Human Equivalent Dose (HED) from SNL rat dose” value [2] is reported as “HED = 7.5 mg” and the “Human Equivalent Dose (HED) from SNL rat dose” value ([2]; listed as quizartinib) is reported as 7.5 mg.

In the case of `Cc1cc(C)c(/C=C2\C(=O)Nc3ccccc32)[nH]1` [Semaxinib], the “Active dose for treating cancer” value [4] is given as 235 mg and the “Active dose for treating cancer” value ([1]; advanced or recurrent head and neck cancers) is given as 145 mg/m^2.

In the case of `CNC(=O)c1cc(Oc2ccc(NC(=O)Nc3ccc(Cl)c(C(F)(F)F)c3)cc2)ccn1` [Sorafenib], the “minimum inhibiting dose inducing maximal tumor regression” value [3] is given as 10 mg/kg.

In the case of `CCN(CC)CCNC(=O)c1c(C)[nH]c(/C=C2\C(=O)Nc3ccc(F)cc32)c1C` [Sunitinib], the “mechanical hypersensitivity (percentage of withdrawal after mechanical stimulation)” value [5] is reported as “inactive”, the IC50 (FLT3; non-linear regression, read-out: IC50 for inhibition of FL potentiation of the [Ca2+]i peak response to capsaicin) is reported as 0.7 nM and the “inhibiting dose giving 50% of inhibition (ID50) of SNL-induced mechanical hypersensitivity” value ([2]; SNL rats, oral) is reported as 0.015 mg/kg. The “minimal dose for maximal inhibition of pain sensitivity” value ([2]; SNL rats, oral administration, paw pressure 24 hours after administration) was 0.075 mg/kg, the “Human Equivalent Dose (HED) from SNL rat dose” value [2] was “HED = 0.73 mg” and the “Human Equivalent Dose (HED) from SNL rat dose” value ([2]; listed as sunitinib) was 0.73 mg. The “Human Equivalent Dose (HED) from mouse tumor regression dose” value [6] was 98 mg.

B1: FL: cytokine which is a natural ligand of the FLT3 receptor; from ABCYS SA (protein, UniProt P49771 27-235, looked up)
Fms-related tyrosine kinase 3 …: TQDCSFQHSPISSDFAVKIRELSDYLLQDYPVTVASNLQDEELCGGLWRLVLAQRWMERLKTVAGSKMQGLLERVNTEIHFVTKCAFQPPPSCLRFVQTNISRLLQETSEQLVALKPWITRQNFSRCLELQCQPDSSTLPPPWSPRPLEATAPTAPQPPLLLLLLLPVGLLLLAAAWCLHWQRTRRRTPRPGEQVPPVPSPQDLLLVEH
In the case of B1, the “effect on [Ca2+]i peak response to capsaicin” value (FLT3) is reported as “elicited a potentiation”.
